In patent publication US20250145625A1, “PYRAZOLOPYRIMIDINE DERIVATIVE AND ANTICANCER PHARMACEUTICAL COMPOSITION CONTAINING SAME AS ACTIVE INGREDIENT” (KOREA RESEARCH INSTITUTE OF CHEMICAL TECHNOLOGY, priority 2021, published 2025):

What was measured:
[1] = target: recombinant human TTK protein (Homo sapiens (Human), UniProt P33981); assay: Evaluation of TTK activity inhibitory ability (scintillation counting); type: biochemical; conditions: TTK inhibitory activity; read-out: IC50;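 further: reaction stopped with 0.5% phosphoric acid, spotted on P30 filter, TTK activity counted by scintillation, uninhibited no-compound wells taken as 100% control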
Sequence of recombinant human TTK protein (P33981 whole entry): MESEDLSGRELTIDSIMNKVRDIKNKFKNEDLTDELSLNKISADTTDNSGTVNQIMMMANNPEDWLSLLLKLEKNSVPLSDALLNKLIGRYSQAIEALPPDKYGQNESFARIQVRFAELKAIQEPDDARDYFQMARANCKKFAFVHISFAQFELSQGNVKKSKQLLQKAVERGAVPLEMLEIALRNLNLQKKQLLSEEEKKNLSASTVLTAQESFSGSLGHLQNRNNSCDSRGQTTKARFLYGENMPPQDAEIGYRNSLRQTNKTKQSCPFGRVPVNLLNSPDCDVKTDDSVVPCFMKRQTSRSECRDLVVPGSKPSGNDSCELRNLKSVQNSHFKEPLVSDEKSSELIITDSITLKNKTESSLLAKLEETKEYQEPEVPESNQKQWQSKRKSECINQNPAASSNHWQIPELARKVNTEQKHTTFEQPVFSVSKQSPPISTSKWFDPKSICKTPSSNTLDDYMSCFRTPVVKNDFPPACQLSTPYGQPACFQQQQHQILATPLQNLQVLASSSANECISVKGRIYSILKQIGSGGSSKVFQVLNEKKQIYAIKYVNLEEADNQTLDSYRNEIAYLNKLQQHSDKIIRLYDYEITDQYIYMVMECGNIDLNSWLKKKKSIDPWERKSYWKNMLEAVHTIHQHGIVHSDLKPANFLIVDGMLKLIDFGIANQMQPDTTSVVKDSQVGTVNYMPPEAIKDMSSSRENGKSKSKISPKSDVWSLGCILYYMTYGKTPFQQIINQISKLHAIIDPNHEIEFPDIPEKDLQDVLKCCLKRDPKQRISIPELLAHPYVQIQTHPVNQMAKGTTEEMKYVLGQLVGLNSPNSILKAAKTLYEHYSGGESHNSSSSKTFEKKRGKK
Protocol: To determine the ability of a compound represented by Chemical Formula 1 according to the present invention to inhibit TTK activity, the following experiment was conducted.
After that, the reaction was terminated by adding phosphoric acid to a concentration of 0.5%, and 10 of the reaction solution was dropped onto a P30 filter. […] The activity of TTK was measured through scintillation counting. The activity value from the group with no compound was set as 100% of control, and the degree of TTK inhibition by the compound was calculated.

[2] = tested on: MDA-MB-231 triple negative breast cancer cell line; assay: Cytotoxicity in TTK-expressed MDA-MB-231 cells; type: cell-based; conditions: Homo sapiens, MDA-MB-231, 120 h, 5 days
Protocol: To determine the cytotoxicity of a compound represented by Chemical Formula 1 according to the present invention to MDA-MB-231 cells, the following test was conducted.
MDA-MB-231 triple negative breast cancer cell line purchased from ATCC was inoculated into each well of a 96-well plate at a volume of 90 μL containing 2,000 cells. Thereafter, an example compound of the present invention was added to respective wells at concentrations of 10 μM, 3 μM, 1 μM, 0.3 μM, 0.1 μM, and 0 μM, and the cells were cultured in a cell incubator at 37° C. for 5 days. Five days later, 10 μL of Cyto X solution (manufacturer: LPS Solution) was added to each of the wells, and the absorbance was measured at 450 nm using an Epoch microplate spectrophotometer (manufacturer: BioTek Instruments Inc.) according to the product's user guide. For cytotoxicity, the IC50 value for cytotoxicity of each compound was calculated by quantifying the number of cells using the measured value.

[3] = tested on: HCT116 colon cancer cell line; assay: Cytotoxicity in TTK-expressed HCT116 cells; type: cell-based; conditions: Homo sapiens, HCT-116, 120 h, 5 days
Protocol: To determine the cytotoxicity of a compound represented by Chemical Formula 1 according to the present invention to HCT116 cells, the following test was conducted.
HCT116 colon cancer cell line purchased from ATCC was inoculated into each well of a 96-well plate at a volume of 90 μL containing 2,000 cells. Thereafter, an example compound of the present invention was added to respective wells at concentrations of […], 3 μM, 1 μM, 0.3 μM, 0.1 μM, and 0 μM, and the cells were cultured in a cell incubator at 37° C. for 5 days. After 5 days, the number of cells was measured by CCK8 test method, and the cytotoxicity was determined by calculating the IC50 value for cytotoxicity of each compound.

Structure (SMILES) | IC50 [1] | IC50 [2] | IC50 [3]
COc1cc(N2CCOCC2)ccc1Nc1nc(NC2CCCCC2)c2c(-c3cnoc3)n[nH]c2n1 [Compound 8-20, N^4-cyclohexyl-3-(isoxazol-4-yl)-N^6-(2-methoxy-4-morpholinophenyl)-1H-pyrazolo[3,4-d]pyrimidine-4,6-diamine] | < 30 nM | < 150 nM | < 150 nM
COc1cc(N2CCOCC2)ccc1Nc1nc(NCC2CCCO2)c2c(-c3cnn(C)c3)n[nH]c2n1 (stereo not shown) [Compound 8-34, N^6-(2-methoxy-4-morpholinophenyl)-3-(1-methyl-1H-pyrazol-4-yl)-N^4-((tetrahydrofuran-2-yl)methyl)-1H-pyrazolo[3,4-d]pyrimidine-4,6-diamine] | < 30 nM | > 1000 nM | > 1000 nM
COc1cc(N2CCOCC2)ccc1Nc1nc(NC2CCCCC2)c2c(-c3nncn3C)n[nH]c2n1 [Compound 14-1, N^4-cyclohexyl-N^6-(2-methoxy-4-morpholinophenyl)-3-(4-methyl-4H-1,2,4-triazol-3-yl)-1H-pyrazolo[3,4-d]pyrimidine-4,6-diamine] | 30 to 100 nM | < 150 nM | 150 to 500 nM
COc1cc(-c2nncn2C)ccc1Nc1nc(NC2CCOCC2)c2c(-c3cnco3)n[nH]c2n1 [Compound 33-3, N^6-(2-methoxy-4-(4-methyl-4H-1,2,4-triazol-3-yl)phenyl)-3-(oxazol-5-yl)-N^4-(tetrahydro-2H-pyran-4-yl)-1H-pyrazolo[3,4-d]pyrimidine-4,6-diamine] | < 30 nM | 500 to 1000 nM | > 1000 nM
CNC(=O)c1ccc(Nc2nc(NC3CCOCC3)c3c(-c4cnco4)n[nH]c3n2)c(OC)c1 [Compound 33-2, 3-methoxy-N-methyl-4-((3-(oxazol-5-yl)-4-((tetrahydro-2H-pyran-4-yl)amino)-1H-pyrazolo[3,4-d]pyrimidin-6-yl)amino)benzamide] | < 30 nM | 150 to 500 nM | 500 to 1000 nM
COc1cc(N2CCOCC2)ccc1Nc1nc(NC2CCOCC2)c2c(-c3cnco3)n[nH]c2n1 [Compound 33-1, N^6-(2-methoxy-4-morpholinophenyl)-3-(oxazol-5-yl)-N^4-(tetrahydro-2H-pyran-4-yl)-1H-pyrazolo[3,4-d]pyrimidine-4,6-diamine] | < 30 nM | < 150 nM | < 150 nM
COc1cc(N2CCOCC2)ccc1Nc1nc(NC2CCCCC2)c2c(-c3cnn(C(F)F)c3)n[nH]c2n1 [Compound 8-12, N^4-cyclohexyl-3-(1-(difluoromethyl)-1H-pyrazol-4-yl)-N^6-(2-methoxy-4-morpholinophenyl)-1H-pyrazolo[3,4-d]pyrimidine-4,6-diamine] | 30 to 100 nM | 150 to 500 nM | 150 to 500 nM
COc1cc(N2CCOCC2)ccc1Nc1nc(NC2CCCCC2)c2c(-c3ccc4[nH]cnc4c3)n[nH]c2n1 [Compound 8-16, 3-(1H-benzo[d]imidazol-5-yl)-N^4-cyclohexyl-N^6-(2-methoxy-4-morpholinophenyl)-1H-pyrazolo[3,4-d]pyrimidine-4,6-diamine] | 30 to 100 nM | 500 to 1000 nM | < 150 nM
COc1cc(N2CCOCC2)ccc1Nc1nc(NC2CCOCC2)c2c(-c3cn(C)nn3)n[nH]c2n1 [Compound 21-3, N^6-(2-methoxy-4-morpholinophenyl)-3-(1-methyl-1H-1,2,3-triazol-4-yl)-N^4-(tetrahydro-2H-pyran-4-yl)-1H-pyrazolo[3,4-d]pyrimidine-4,6-diamine] | 30 to 100 nM | 150 to 500 nM | < 150 nM
COc1cc(N2CCOCC2)ccc1Nc1nc(NC2CCCCC2)c2c(-c3cnco3)n[nH]c2n1 [Compound 18-1, N^4-cyclohexyl-N^6-(2-methoxy-4-morpholinophenyl)-3-(oxazol-5-yl)-1H-pyrazolo[3,4-d]pyrimidine-4,6-diamine] | < 30 nM | < 150 nM | < 150 nM
COc1cc(N2CCOCC2)ccc1Nc1nc(NC2CCCCC2)c2c(-c3cncs3)n[nH]c2n1 [Compound 8-15, N^4-cyclohexyl-N^6-(2-methoxy-4-morpholinophenyl)-3-(thiazol-5-yl)-1H-pyrazolo[3,4-d]pyrimidine-4,6-diamine] | < 30 nM | 150 to 500 nM | 150 to 500 nM
COc1cc(N2CCOCC2)ccc1Nc1nc(NC2CCOCC2)c2c(-c3cccnc3)n[nH]c2n1 [Compound 8-27, N^6-(2-methoxy-4-morpholinophenyl)-3-(pyridin-3-yl)-N^4-(tetrahydro-2H-pyran-4-yl)-1H-pyrazolo[3,4-d]pyrimidine-4,6-diamine] | < 30 nM | 500 to 1000 nM | 500 to 1000 nM
CC(C)Oc1cc(N2CCOCC2)ccc1Nc1nc(NC2CCCCC2)c2c(-c3cnn(C)c3)n[nH]c2n1 [Compound 26-1, N^4-cyclohexyl-N^6-(2-isopropoxy-4-morpholinophenyl)-3-(1-methyl-1H-pyrazol-4-yl)-1H-pyrazolo[3,4-d]pyrimidine-4,6-diamine] | 30 to 100 nM | 150 to 500 nM | 500 to 1000 nM
COc1cc(N2CCOCC2)ccc1Nc1nc(NC2CCCCC2)c2c(-c3nnco3)n[nH]c2n1 [Compound 14-2, N^4-cyclohexyl-N^6-(2-methoxy-4-morpholinophenyl)-3-(1,3,4-oxadiazol-2-yl)-1H-pyrazolo[3,4-d]pyrimidine-4,6-diamine] | 30 to 100 nM | 150 to 500 nM | 150 to 500 nM
COc1cc(N2CCOCC2)ccc1Nc1nc(NC2CCCCC2)c2c(-c3n[nH]c(=O)o3)n[nH]c2n1 [Compound 14-3, 5-(4-(cyclohexylamino)-6-((2-methoxy-4-morpholinophenyl)amino)-1H-pyrazolo[3,4-d]pyrimidin-3-yl)-1,3,4-oxadiazol-2(3H)-one] | 30 to 100 nM | 150 to 500 nM | < 150 nM
COc1cc(N2CCOCC2)ccc1Nc1nc(NC2CCOCC2)c2c(-c3cnn(C)c3)n[nH]c2n1 [Compound 8-23, N^6-(2-methoxy-4-morpholinophenyl)-3-(1-methyl-1H-pyrazol-4-yl)-N^4-(tetrahydro-2H-pyran-4-yl)-1H-pyrazolo[3,4-d]pyrimidine-4,6-diamine] | < 30 nM | 500 to 1000 nM | 150 to 500 nM
COc1cc(N2CCOCC2)ccc1Nc1nc(NC2CCOCC2)c2c(-c3ccn(C)n3)n[nH]c2n1 [Compound 8-25, N^6-(2-methoxy-4-morpholinophenyl)-3-(1-methyl-1H-pyrazol-3-yl)-N^4-(tetrahydro-2H-pyran-4-yl)-1H-pyrazolo[3,4-d]pyrimidine-4,6-diamine] | < 30 nM | 150 to 500 nM | 150 to 500 nM
COc1cc(N2CCOCC2)ccc1Nc1nc(Nc2ccccc2)c2c(-c3cnn(C)c3)n[nH]c2n1 [Compound 26-2, N^6-(2-methoxy-4-morpholinophenyl)-3-(1-methyl-1H-pyrazol-4-yl)-N^4-phenyl-1H-pyrazolo[3,4-d]pyrimidine-4,6-diamine] | < 30 nM | > 1000 nM | > 1000 nM
COc1cc(N2CCOCC2)ccc1Nc1nc(NC2CCCCC2)c2c(-c3cnc[nH]3)n[nH]c2n1 [Compound 18-2, N^4-cyclohexyl-3-(1H-imidazol-5-yl)-N^6-(2-methoxy-4-morpholinophenyl)-1H-pyrazolo[3,4-d]pyrimidine-4,6-diamine] | 30 to 100 nM | 500 to 1000 nM | 500 to 1000 nM
CNC(=O)c1cccc(-c2n[nH]c3nc(Nc4ccc(N5CCOCC5)cc4OC)nc(NC4CCCCC4)c23)c1 [Compound 8-5, 3-(4-(cyclohexylamino)-6-((2-methoxy-4-morpholinophenyl)amino)-1H-pyrazolo[3,4-d]pyrimidin-3-yl)-N-methylbenzamide] | – | > 1000 nM | > 1000 nM
Cn1cc(-c2n[nH]c3nc(NC4CCC(N5CCOCC5)CC4)nc(NC4CCCCC4)c23)cn1 (stereo not shown) [Compound 8-30, N^4-cyclohexyl-3-(1-methyl-1H-pyrazol-4-yl)-N^6-(4-morpholinocyclohexyl)-1H-pyrazolo[3,4-d]pyrimidine-4,6-diamine] | 100 to 300 nM | > 1000 nM | –
COc1cc(N2CCOCC2)ccc1Nc1nc(NC2CCCCC2)c2c(-c3ccc4[nH]ncc4c3)n[nH]c2n1 [Compound 8-17, N^4-cyclohexyl-3-(1H-indazol-5-yl)-N^6-(2-methoxy-4-morpholinophenyl)-1H-pyrazolo[3,4-d]pyrimidine-4,6-diamine] | – | 500 to 1000 nM | 500 to 1000 nM
COc1cc(N2CCOCC2)ccc1Nc1nc(NC2CCCCC2)c2c(-c3cccc(NC(=O)C4CC4)c3)n[nH]c2n1 [Compound 8-4, N-(3-(4-(cyclohexylamino)-6-((2-methoxy-4-morpholinophenyl)amino)-1H-pyrazolo[3,4-d]pyrimidin-3-yl)phenyl)cyclopropanecarboxamide] | – | 500 to 1000 nM | > 1000 nM
COc1cc(N2CCOCC2)ccc1Nc1nc(NC2CCCCC2)c2c(-c3cccc(C(N)=O)c3)n[nH]c2n1 [Compound 8-2, 3-(4-(Cyclohexylamino)-6-((2-methoxy-4-morpholinophenyl)amino)-1H-pyrazolo[3,4-d]pyrimidin-3-yl)benzamide] | – | > 1000 nM | > 1000 nM
